DBAASP
≈ marks a conversion by molar mass, not a printed value.

How the values were obtained:
Test in all cases: ≥ marks a high value that may be exact or a test limit, other limits are often not marked, values filed in µg/mL are converted to µM
[1] = system: Pseudomonas aeruginosa ATCC 27853
[2] = system: Candida albicans ATCC 10231
[3] = system: Staphylococcus aureus ATCC 9144
[4] = system: Aureobasidium pullulans
[5] = system: Escherichia coli ATCC 25922
[6] = system: Corynebacterium glutamicum ATCC 13032
[7] = system: Escherichia coli DSM 1116
[8] = system: Staphylococcus xylosus DSM 20287
[9] = system: Franconibacter helveticus DSM 18390
[10] = system: Bacillus subtilis DSM 347
[11] = system: Staphylococcus aureus CMCC 26074
[12] = system: Salmonella enterica subsp. enterica CMCC 47020
[13] = system: Salmonella enterica subsp. enterica serovar Typhimurium C77-31
[14] = system: Escherichia coli UB1005
[15] = system: Salmonella enterica subsp. enterica serovar Pullorum C79-13
[16] = system: Staphylococcus aureus ATCC 25923
[17] = system: Bacillus cereus CMCC 6303
[18] = system: Cronobacter sakazakii ATCC 29544
[19] = system: Salmonella enterica subsp. enterica serovar Typhi CMCC 50071
[20] = system: Listeria monocytogenes CMCC 54004
[21] = system: Salmonella enterica subsp. enterica serovar Typhimurium ATCC 14028
[22] = system: Staphylococcus aureus USA 300 LAC
[23] = system: Klebsiella pneumoniae ATCC 13883
[24] = system: Staphylococcus aureus 710A
[25] = system: Bacillus megaterium Bm11
[26] = system: Escherichia coli ML-35
[27] = system: Escherichia coli NBRC 3972
[28] = system: Micrococcus luteus NBRC 3333
[29] = system: Staphylococcus epidermidis NBRC 12993
[30] = system: Candida viswanathii NBRC 10321
[31] = system: Aspergillus oryzae NBRC 100959
[32] = system: Batrachochytrium dendrobatidis
[33] = system: Bacillus subtilis IFO 3037
[34] = system: Escherichia coli IFO 14237
[35] = system: Staphylococcus aureus IFO 12732
[36] = system: Pseudomonas aeruginosa IFO 12582

Which results are given for `CC(C)[C@H](NC(=O)[C@H](CCCCN)NC(=O)[C@H](C)NC(=O)[C@@H](NC(=O)[C@@H](NC(=O)[C@H](CCCN=C(N)N)NC(=O)[C@H](CCCN=C(N)N)NC(=O)[C@H](Cc1c[nH]c2ccccc12)NC(=O)[C@H](Cc1c[nH]c2ccccc12)NC(=O)CN)[C@@H](C)O)C(C)C)C(=O)N[C@@H](CCCN=C(N)N)C(=O)N[C@@H](CCCCN)C(N)=O` [GWWRRTVAKVRK]?
MIC [1]: 1.6 µM (≈ 2.47 µg/mL); MIC [2]: 6.3 µM (≈ 9.71 µg/mL); MIC [3]: 12.5 µM (≈ 19.3 µg/mL); MIC [4]: 12.5 µM (≈ 19.3 µg/mL); MIC [5]: 3.1 µM (≈ 4.78 µg/mL); MIC [6]: 0.4 µM (≈ 0.617 µg/mL)

What does the source list for `CC[C@H](C)[C@H](N)C(=O)N[C@@H](C)C(=O)NCC(=O)N[C@@H](CCCCN)C(=O)N[C@H](C(=O)N[C@@H](C)C(=O)N[C@@H](CCCCN)C(=O)N[C@H](C(=O)N[C@@H](C)C(=O)NCC(=O)N[C@@H](CCCCN)C(=O)N[C@H](C(=O)N[C@@H](C)C(=O)N[C@@H](CCCCN)C(=O)N[C@H](C(=O)N[C@@H](C)C(=O)NCC(=O)N[C@@H](CCCCN)C(=O)N[C@H](C(=O)N[C@@H](C)C(=O)N[C@@H](CCCCN)C(=O)N[C@H](C(=O)N[C@@H](C)C(=O)NCC(=O)N[C@@H](CCCCN)C(=O)N[C@H](C(=O)N[C@@H](C)C(N)=O)[C@@H](C)CC)[C@@H](C)CC)[C@@H](C)CC)[C@@H](C)CC)[C@@H](C)CC)[C@@H](C)CC)[C@@H](C)CC` [IAGKIAKIAGKIAKIAGKIAKIAGKIA]?
MIC [7]: 2.16 µM (≈ 5.65 µg/mL); MIC [8]: 0.764 µM (≈ 2 µg/mL); MIC [9]: 1.08 µM (≈ 2.83 µg/mL); MIC [10]: 1.08 µM (≈ 2.83 µg/mL)

Which MIC [11] does the source give for `CC[C@H](C)[C@H](NC(=O)[C@H](CCCN=C(N)N)NC(=O)[C@H](CCCCN)NC(=O)[C@H](Cc1c[nH]c2ccccc12)NC(=O)[C@@H](N)CCCN=C(N)N)C(=O)N[C@H](C(=O)N[C@H](C(=O)N[C@H](C(=O)N[C@@H](CCCN=C(N)N)C(=O)N[C@@H](CCCCN)C(=O)N[C@@H](CCCN=C(N)N)C(=O)N[C@@H](CCCN=C(N)N)C(N)=O)[C@@H](C)CC)C(C)C)C(C)C` [RWKRIVVIRKRR] here?
Its MIC is no less than 256 µM.

What about the MIC [12] of the same compound?
The MIC was no less than 256 µM.

And the MIC [13]?
The MIC was no less than 256 µM.

And the MIC [14]?
Its MIC is no less than 256 µM.

What about the MIC [15] of the same compound?
The MIC was no less than 256 µM.

And the MIC [16]?
The MIC was greater than 256 µM.

And the MIC [17]?
The MIC was no less than 128 µM.

And the MIC [18]?
The MIC was no less than 256 µM.

And the MIC [19]?
Its MIC is no less than 128 µM.

And the MIC [20]?
The MIC was no less than 128 µM.

And the MIC [21]?
The MIC was 128 µM (≈ 213 µg/mL).

How did the MIC [22] turn out when `CC[C@H](C)[C@H](N)C(=O)N[C@@H](Cc1c[nH]c2ccccc12)C(=O)N[C@@H](Cc1c[nH]c2ccccc12)C(=O)N[C@@H](Cc1c[nH]c2ccccc12)C(=O)N[C@@H](Cc1c[nH]c2ccccc12)C(=O)N[C@@H](CC(C)C)C(=O)N[C@@H](CCCN=C(N)N)C(=O)N[C@@H](CCCCN)C(N)=O` [IWWWWLRK] was run?
Its MIC is 3.1 µM (≈ 3.94 µg/mL).

And the MIC [23]?
Its MIC is 17.7 µM (≈ 22.5 µg/mL).

And the MIC [5]?
The MIC was 12.5 µM (≈ 15.9 µg/mL).

What does the source list for `CC[C@H](C)[C@H](NC(=O)[C@H](CCCCN)NC(=O)[C@H](CCCCN)NC(=O)[C@H](CC(C)C)NC(=O)[C@H](CC(C)C)NC(=O)CN)C(=O)NCC(=O)N[C@@H](CCCCN)C(=O)N[C@@H](CCCCN)C(=O)N[C@@H](C)C(=O)N[C@@H](CCCCN)C(=O)N[C@@H](CCCCN)C(=O)N[C@@H](C)C(=O)NCC(=O)N[C@@H](CCCCN)C(=O)N[C@@H](CCCCN)C(=O)N[C@@H](CC(C)C)C(=O)NCC(=O)N[C@@H](Cc1ccc(O)cc1)C(N)=O` [GLLKKIGKKAKKAGKKLGY]?
MIC [24]: ≥ 32 µM; MIC [25]: ≥ 32 µM; MIC [1]: 16 µM (≈ 32.5 µg/mL); MIC [26]: 4 µM (≈ 8.11 µg/mL); MIC [21]: > 32 µM

Which results are given for `CSCC[C@H](NC(=O)[C@H](CCCCN)NC(=O)[C@@H](N)CCCN=C(N)N)C(=O)N[C@@H](CCCCN)C(=O)N[C@@H](CCCN=C(N)N)C(=O)N[C@H](C(=O)N[C@@H](Cc1c[nH]c2ccccc12)C(=O)N[C@@H](CCCCN)C(=O)N[C@@H](CCCN=C(N)N)C(=O)N[C@@H](Cc1ccccc1)C(=O)N[C@@H](CCCCN)C(=O)N[C@@H](CC(C)C)C(=O)O)C(C)C` [RKMKRVWKRFKL]?
MIC [27]: ≥ 239 µM; MIC [28]: 29.8 µM (≈ 50 µg/mL); MIC [29]: 14.9 µM (≈ 25 µg/mL); MIC [30]: 14.9 µM (≈ 25 µg/mL); MIC [31]: 14.9 µM (≈ 25 µg/mL)

With `CC[C@H](C)[C@H](NC(=O)[C@@H](NC(=O)[C@@H]1CCCN1C(=O)[C@H](CC(C)C)NC(=O)[C@@H](N)Cc1ccccc1)[C@@H](C)CC)C(=O)N[C@@H](C)C(=O)N[C@@H](CO)C(=O)N[C@@H](CC(C)C)C(=O)N[C@@H](CC(C)C)C(=O)NCC(=O)N[C@@H](CCCCN)C(=O)N[C@@H](CC(C)C)C(=O)N[C@@H](CC(C)C)C(N)=O` [FLPIIASLLGKLL] as the compound, how does the MIC [32] read?
The MIC was 28.6 µM (≈ 40 µg/mL).

Which results are given for `CC[C@H](C)[C@H](NC(=O)[C@H](CC(N)=O)NC(=O)[C@H](CC(C)C)NC(=O)[C@H](CCCCN)NC(=O)[C@@H](NC(=O)[C@@H](NC(=O)[C@H](CC(=O)O)NC(=O)[C@@H](N)Cc1ccccc1)[C@@H](C)CC)[C@@H](C)O)C(=O)N[C@@H](CCCCN)C(=O)N[C@@H](CCCCN)C(=O)N[C@@H](CC(C)C)C(=O)N[C@H](C(=O)N[C@@H](CCCCN)C(=O)N[C@@H](C)C(=O)N[C@H](C(=O)N[C@H]1CSSC[C@@H](C(=O)N[C@@H](CCCCN)C(=O)N[C@H](C(=O)N[C@@H](CC(C)C)C(=O)N[C@@H](Cc2ccccc2)C(=O)N[C@@H](CC(=O)O)C(=O)N[C@@H](CCCCN)C(=O)N[C@@H](CCCCN)C(=O)N[C@@H](CCCCN)C(=O)N[C@@H](CCC(N)=O)C(=O)N[C@@H](CCC(=O)O)C(=O)O)C(C)C)NC(=O)[C@H](CCSC)NC(=O)[C@H](CO)NC(=O)[C@H](C)NC(=O)CNC(=O)[C@H](CCCCN)NC(=O)[C@H](CO)NC(=O)[C@H]([C@@H](C)CC)NC(=O)[C@H](C(C)C)NC(=O)[C@H](CCCCN)NC1=O)[C@@H](C)O)[C@@H](C)O` [FDITKLNIKKLTKATCKVISKGASMCKVLFDKKKQE]?
MIC [33]: ≥ 50 µM; MIC [34]: 6.25 µM (≈ 25.5 µg/mL); MIC [35]: 6.25 µM (≈ 25.5 µg/mL); MIC [36]: 25 µM (≈ 102 µg/mL)
